Test results: patent publication US4798821A, “Antihypertensive therapy for diabetics” (Merck & Co., Inc., priority 1987, dated 1989)

How the values were obtained:
Assay type in all cases: in vivo, rat
diabetic rats = assay: Systolic blood pressure (tail cuff) in streptozotocin-diabetic rats; conditions: treated diabetic rats
Method: (§1) In the determination, the following groups of rats were employed, each group consisting of ten rats.
Group 3 Diabetic rats treated with cyclopeptide compound
Normal rats were commercially available laboratory rats identified as CD rats.
(§2) Diabetic rats were CD rats in which diabetes was induced by the injection of streptozotocin into the femoral vein at a dose of 60 mg/kg. Hyperglycemia was confirmed by measuring glucose levels in blood obtained by orbital bleeding. (A standard medical technique for obtaining blood form the orbital sinus is described in "Laboratory Animal Medicine" edited by J. G. Fox et al., Academic Press, Inc., Orlando, Fla., 1984.)
Dosing was initiated with cyclopeptide compound four days after injection of streptozotocin to induce diabetes in the diabetic rats. […]
(§3) The rats were housed two to a box and fed standard rat food and water ad libitum. Blood pressure was measured indirectly with a photoelectric system with a tail cuff containing a built in sensor (Harvard Biosciences,Cambridge, MA). The instrument was calibrated on each day of use with a sphygmomanometer. Six to eight recordings were made for each rat.
Blood pressure measurements were initated 8 days following injection of streptozotocin (4 days after start of treatment).
FIG. 1 is a graph in which the blood pressures of normal, diabetic and treated diabetic rats are plotted against a period of time in days. (Each point is the mean of 7 to 10 rats±standard deviation.)

[1] = test system: spontaneously hypertensive (SH) rats; assay: Systolic blood pressure (tail cuff) in spontaneously hypertensive rats; conditions: treated SH rats
Method: as §1
Group 4 Spontaneously hypertensive (SH) rats
Group 5 Spontaneously hypertensive rats treated with cyclopeptide compound
SH rats were commercially available spontaneously hypertensive rats.
(§4) Dosing was initiated with cyclopeptide compound four days after injection of streptozotocin to induce diabetes in the diabetic rats. Dosing was carried out by administering the cyclopeptide compound in the drinking water at a dose of 50 μg/rat/day.
as §3
The blood pressure measurements of treated and untreated spontaneously hypertensive rats compared with normal rats may be seen in FIG. 2.
FIG. 2 is a graph in which the systolic blood pressure of normal, spontaneously hypertensive and treated spontaneously hypertensive rats are plotted against a period of time in days.

[2] = Serum glucose level of treated rats; conditions: for Serum Glucose (after 27 days): after 27 days of treatment, mean ± std. dev.
Method: as §1, §2, §4, §3
(§5) At the beginning of the experiment, the mean weights of the CD rats were 160 grams and the SH rats were 220 grams. The body weights after 38 days may be seen in Table 1. The serum glucose level, measured after 27 days of treatment also may be seen in Table 1.

[3] = Body weight of treated rats; conditions: for Body Weight (after 38 days): mean ± std. dev.
Method: as §1, §2, §4, §3, §5

[4] = diabetic rat or spontaneously hypertensive rat

Serum Glucose (after 27 days) ([2]; Diabetic CD rats (streptozotocin) + Compound IA in drinking water): 352 ± 52 mg % | Serum Glucose (after 27 days) ([2]; SH rats + Compound IA in drinking water, P = <0.05 relative to normal CD): 90 ± 10 mg % | effect on serum glucose level (in words) [2, 4]: no significant effect
Structure (SMILES): CC(C)[C@@H]1NC(=O)[C@H](CCCCN)NC(=O)[C@@H](Cc2c[nH]c3ccccc23)NC(=O)[C@H](Cc2ccc(O)cc2)NC(=O)[C@H](C)N(C)C(=O)[C@H](Cc2ccccc2)NC1=O [Compound IA, cyclo-(N-MeAla-Tyr-(D)Trp-Lys-Val-Phe)]
reduction in blood pressure (diabetic rats; 33rd day of treatment, 100 μg/rat/day from 21st day, P=<0.005): 18% | reduction in blood pressure (diabetic rats; 38th day of treatment, 100 μg/rat/day from 21st day, P=<0.001): 21% | reduction in blood pressure (diabetic rats; after 17 days of treatment, 50 μg/rat/day in drinking water, P=<0.05): 14% | reduction in systolic blood pressure ([1]; 10th day of treatment, P=<0.02): 11% | inhibition of blood pressure after the 10th day ([1]; after 10th day, even after increasing dose to 200 μg/rat/day on 40th day): no further inhibition was evident | Body Weight (after 38 days) ([3]; Diabetic CD rats (streptozotocin) + Compound IA in drinking water, 50 μg/rat/day, doubled to 100 μg/rat/day on 21st day): 281 ± 63 gms | Body Weight (after 38 days) ([3]; SH rats + Compound IA in drinking water): 285 ± 17 gms | effect on body weight (in words) [3, 4]: no significant effect
